# Tests used:
# Test in all cases: relative viability (nuclei count vs DMSO), 5 days (fraction); higher = more cells survive
# [1] = compound: CCN1C(=O)C2=CC(=C(N=C2N(C1=O)C3CC3)N)C(=O)N + O=C(CCCCCCC(=O)Nc1ccccc1)NO [Vorinostat] (partner 1 µM)
# Method in brief: (§1)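 For relative viability, nuclei counts in treated wells were divided by those in vehicle wells. Lung cancer cell lines had been pin-tool dosed in 1536-well plates the day after seeding and cultured for 5 days, then fixed and stained in one step (final 0.05% Triton X-100, 1% formaldehyde, 1 ug/ml Hoechst) and imaged at 4×. Doses were one drug alone or a fixed anchor-drug dose plus five library-drug doses (not always all listed) in √10 steps, and values are duplicate-plate medians.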
# [2] = compound: CCN1C(=O)C2=CC(=C(N=C2N(C1=O)C3CC3)N)C(=O)N + O=C(c1cc(Cc2n[nH]c(=O)c3ccccc23)ccc1F)N1CCN(C(=O)C2CC2)CC1 [Olaparib] (partner 8 µM)
# Method in brief: as §1
# [3] = compound: CCN1C(=O)C2=CC(=C(N=C2N(C1=O)C3CC3)N)C(=O)N + Nc1nc2[nH]cc(CCc3ccc(C(=O)N[C@@H](CCC(=O)O)C(=O)O)cc3)c2c(=O)[nH]1 [Pemetrexed] (partner 0.2 µM)
# Method in brief: as §1
# [4] = compound: CCN1C(=O)C2=CC(=C(N=C2N(C1=O)C3CC3)N)C(=O)N + Nc1ncn([C@H]2C[C@H](O)[C@@H](CO)O2)c(=O)n1 [Decitabine] (partner 2 µM)
# Method in brief: as §1
# [5] = compound: CCN1C(=O)C2=CC(=C(N=C2N(C1=O)C3CC3)N)C(=O)N + Cc1nc(NC(=O)N2CCC[C@H]2C(N)=O)sc1-c1ccnc(C(C)(C)C(F)(F)F)c1 [Alpelisib] (partner 2 µM)
# Method in brief: as §1
Cell Line,relative viability ([1]; first compound 0.253 µM),relative viability ([1]; first compound 0.8 µM),relative viability ([1]; first compound 2.53 µM),relative viability ([1]; first compound 8 µM),relative viability ([2]; first compound 0.253 µM),relative viability ([2]; first compound 0.8 µM),relative viability ([2]; first compound 2.53 µM),relative viability ([2]; first compound 8 µM),relative viability ([3]; first compound 0.253 µM),relative viability ([3]; first compound 0.8 µM),relative viability ([3]; first compound 2.53 µM),relative viability ([3]; first compound 8 µM),relative viability ([4]; first compound 0.253 µM),relative viability ([4]; first compound 0.8 µM),relative viability ([4]; first compound 2.53 µM),relative viability ([4]; first compound 8 µM),relative viability ([5]; first compound 0.253 µM),relative viability ([5]; first compound 0.8 µM),relative viability ([5]; first compound 2.53 µM),relative viability ([5]; first compound 8 µM)
SK-LU-1,0.699,0.755,0.773,0.876,0.458,0.446,0.429,0.493,0.933,1.06,1,1.04,0.63,0.72,0.782,0.669,1.1,0.992,1.04,1.38
NCI-H1975,0.733,0.772,0.697,0.757,0.747,0.82,0.734,0.785,0.294,0.292,0.319,0.288,0.352,0.401,0.388,0.365,0.635,0.653,0.614,0.619
COR-L23,0.413,0.393,0.446,0.343,0.413,0.319,0.19,0.398,0.188,0.202,0.191,0.213,0.442,0.467,0.428,0.375,0.775,0.714,0.816,0.944
NCI-H596,0.582,0.626,0.614,0.571,0.662,0.72,0.767,0.693,0.465,0.507,0.573,0.497,,0.925,0.955,0.951,0.491,0.436,0.474,0.438
NCI-H2126,0.846,0.803,0.765,0.797,0.876,0.932,0.887,0.939,0.682,0.671,0.674,0.674,0.552,0.544,0.541,0.622,0.759,0.734,0.785,0.734
